Experiment [1] addresses T1, strychnine insensitive glycine binding site located on the NMDA receptor complex (Rattus norvegicus, UniProt P35439).
T1 construct: from tissue
Put plainly: affinity for strychnine insensitive glycine binding site (procedure of Kishimoto H. et al.). The note with it: procedure of Kishimoto H. et al. J. Neurochem 1981, 37, 1015-1024. As for the experimental part: The potent and selective action of the compounds of the invention at the strychnine- insensitive glycine binding site present on the NMDA receptor complex may be readily determined using conventional test procedures. Thus the ability to bind at the strychnine insensitive glycine binding site was determined using the procedure of Kishimoto H et al. J Neurochem 1981, 37 1015-1024. The selectivity of the action of compounds of the invention for the strychnine insensitive glycine site was confirmed in studies at other ionotropic known excitatory amino acid receptors.
The affinity of the compound of the invention for strychnine insensitvie glycine binding site was determined using the procedure of Kishimoto H. et al J. Neurochem 1981, 37, 1015-1024.

A further experiment concerns NMDA induced convulsions. The experiment can be described thus: inhibition of NMDA induced convulsions in mice (procedure of Chiamulera C et al.). Type of experiment: in vivo. The following applies: mouse; iv administration; intracerebroventricular injection of NMDA; read-out: ED50 (dose required to protect 50% of the animals from the convulsive action of NMDA). As for the experimental part:
The ability of compounds of the invention to inhibit NMDA included convulsions in the mouse was determined using the procedure of Chiamulera C et al. Psychopharmacology 1990, 102, 551-552. In this test the ability of the compound to inhibit the generalized seizures induced by an intracerebroventricular injection of NMDA in mice was examined at a number of dose levels. […] This expressed as mg/kg is referred to as the ED50 value.

The pKi is the negative decadic logarithm of the Ki, by convention in mol/L. Lower therefore signals a high Ki. Regarding `O=C(/C=C/c1c(C(=O)O)[nH]c2cc(Cl)cc(Cl)c12)Nc1ccccc1O` [Example 2e, (E) 3-[2-(2-Hydroxyphenylaminocarbonyl)ethenyl]-4,6-dichloroindole-2-carboxylic acid], in experiment [1], the pKi was 8.4.

Usually ED50 stands for the midpoint of the dose-response relation. Consider `COc1ccc(NC(=O)/C=C/c2c(C(=O)O)[nH]c3cc(Cl)cc(Cl)c23)cc1OC` [Example 2f, (E) 3-[2-(3,4-Dimethoxyphenylaminocarbonyl)ethenyl]-4,6-dichloroindole-2-carboxylic acid], for which the pKi in experiment [1] is on record as 8.1. Also, the ED50 in the experiment with NMDA induced convulsions stood at 0.3 mg/kg.

For `CCOc1ccc(NC(=O)/C=C/c2c(C(=O)O)[nH]c3cc(Cl)cc(Cl)c23)cc1` [Example 2g, (E) 3-[2(4-Ethoxyphenylaminocarbonyl)ethenyl]-4,6-dichloroindole-2-carboxylic acid], the negative-log Ki (pKi) in experiment [1] turned out to be 8.3. Besides, the 50% effective dose (ED50) in the experiment with NMDA induced convulsions came to 0.1 mg/kg.

In experiment [1], `O=C(/C=C/c1c(C(=O)O)[nH]c2cc(Cl)cc(Cl)c12)Nc1ccc(F)cc1F` [Example 2h, (E) 3-[2-(2,4-Difluorophenylaminocarbonyl)ethenyl]-4,6-dichloroindole-2-carboxylic acid] returned a pKi of 8.3. In the experiment on NMDA induced convulsions, the ED50 came to 0.3 mg/kg.

The molecule `O=C(/C=C/c1c(C(=O)O)[nH]c2cc(Cl)cc(Cl)c12)Nc1cc([N+](=O)[O-])ccc1O` [Example 2i] had a pKi in experiment [1] of 8.0.

Source of the values: US5374649A, “Indole derivatives and pharmaceutical use thereof” (Glaxo S.p.A., priority 1992, dated 1994).
